Data reported in US9663513B2, “Pyrimidine PDE10 inhibitors” (Merck Sharp & Dohme Corp., priority 2012, dated 2017).

Molecular target: human PDE10A2 (Homo sapiens (Human), UniProt Q9Y233)
Assay: PDE10 fluorescence polarization (IMAP FP) inhibition assay
Format: biochemical
Conditions: human PDE10A2 from transfected AD293 cells; FAM-labeled cAMP 50 nM; apparent inhibition constant; read-out: PDE10A Ki
Procedure: The activity of the compounds in accordance with the present invention as PDE10 inhibitors may be readily determined without undue experimentation using a fluorescence polarization (FP) methodology that is well known in the art (Huang, W., et al., J. Biomol Screen, 2002, 7: 215).
In a typical experiment the PDE10 inhibitory activity of the compounds of the present invention was determined in accordance with the following experimental method. PDE10A2 was amplified from human fetal brain cDNA (Clontech, Mountain View, Calif.) using a forward primer corresponding to nucleotides 56-77 of human PDE10A2 (Accession No. AF127480, Genbank Identifier 4894716), containing a Kozak consensus sequence, and a reverse primer corresponding to nucleotides 2406-2413 of human PDE10A2 (Accession No. AF127480, Genbank Identifier 4894716). Amplification with Easy-A polymerase (Stratagene, La Jolla, Calif.) was 95° C. for 2 minutes followed by thirty three cycles of 95° C. for 40 seconds, 55° C. for 30 seconds, and 72° C. for 2 minutes 48 seconds. Final extension was 72° C. for 7 minutes. The PCR product was TA cloned into pcDNA3.2-TOPO (Invitrogen, Carlsbad, Calif.) according to standard protocol. AD293 cells with 70-80% confluency were transiently transfected with human PDE10A2/pcDNA3.2-TOPO using Lipofectamine 2000 according to manufacturer specifications (Invitrogen, Carlsbad, Calif.). Cells were harvested 48 hours post-transfection and lysed by sonication (setting 3, 10×5 sec pulses) in a buffer containing 20 mM HEPES, 1 mM EDTA and protease inhibitor cocktail (Roche). Lysate was collected by centrifugation at 75,000×g for 20 minutes. Supernatant containing the cytoplasmic fraction was used for evaluation of PDE10A2 activity. The fluorescence polarization assay for cyclic nucleotide phosphodiesterases was performed using an IMAP® FP kit supplied by Molecular Devices, Sunnyvale, Calif. (product # R8139). IMAP® technology has been applied previously to phosphodiesterase assays (Huang, W., et al., J. Biomol Screen, 2002, 7: 215). Assays were performed at room temperature in 384-well microtiter plates with an incubation volume of 20.2 μL. Solutions of test compounds were prepared in DMSO and serially diluted with DMSO to yield 8 μL of each of 10 solutions differing by 3-fold in concentration, at 32 serial dilutions per plate. […] 0% of inhibition is determined by using DMSO (1% final concentrations).
A Labcyte Echo 555 (Labcyte, Sunnyvale, Calif.) is used to dispense 200 nL from each well of the titration plate to the 384 well assay plate. A solution of enzyme (1/1600 dilution from aliquots; sufficient to produce 20% substrate conversion) and a separate solution of FAM-labeled cAMP PDE from Molecular Devices (product # R7506), at a final concentration of 50 nM are made in the assay buffer (10 mM Tris HCl, pH 7.2, 10 mM MgCl2, 0.05% NaN3 0.01% Tween-20, and 1 mM DTT). The enzyme and the substrate are then added to the assay plates in two consecutive additions of 10 μL, and then shaken to mix. The reaction is allowed to proceed at room temperature for 30 minutes. […] The enzymatic reaction is stopped by addition of 60 μL of the binding solution to each well of the assay plates and the plates are sealed and shaken for 10 seconds. The plate was incubated at room temperature for at least one hour prior to determining the fluorescence polarization (FP). The parallel and perpendicular fluorescence of each well of the plate was measured using a Perkin Elmer EnVision™ plate reader (Waltham, Mass.).
Fluorescence polarization (mP) was calculated from the parallel (S) and perpendicular (P) fluorescence of each sample well and the analogous values for the median control well, containing only substrate (So and Po), using the following equation: Polarization(mP)=1000*(S/So−P/Po)/(S/So+P/Po).
Dose-inhibition profiles for each compound were characterized by fitting the mP data to a four-parameter equation given below.

human PDE10A2, sequence (Q9Y233 267-1055): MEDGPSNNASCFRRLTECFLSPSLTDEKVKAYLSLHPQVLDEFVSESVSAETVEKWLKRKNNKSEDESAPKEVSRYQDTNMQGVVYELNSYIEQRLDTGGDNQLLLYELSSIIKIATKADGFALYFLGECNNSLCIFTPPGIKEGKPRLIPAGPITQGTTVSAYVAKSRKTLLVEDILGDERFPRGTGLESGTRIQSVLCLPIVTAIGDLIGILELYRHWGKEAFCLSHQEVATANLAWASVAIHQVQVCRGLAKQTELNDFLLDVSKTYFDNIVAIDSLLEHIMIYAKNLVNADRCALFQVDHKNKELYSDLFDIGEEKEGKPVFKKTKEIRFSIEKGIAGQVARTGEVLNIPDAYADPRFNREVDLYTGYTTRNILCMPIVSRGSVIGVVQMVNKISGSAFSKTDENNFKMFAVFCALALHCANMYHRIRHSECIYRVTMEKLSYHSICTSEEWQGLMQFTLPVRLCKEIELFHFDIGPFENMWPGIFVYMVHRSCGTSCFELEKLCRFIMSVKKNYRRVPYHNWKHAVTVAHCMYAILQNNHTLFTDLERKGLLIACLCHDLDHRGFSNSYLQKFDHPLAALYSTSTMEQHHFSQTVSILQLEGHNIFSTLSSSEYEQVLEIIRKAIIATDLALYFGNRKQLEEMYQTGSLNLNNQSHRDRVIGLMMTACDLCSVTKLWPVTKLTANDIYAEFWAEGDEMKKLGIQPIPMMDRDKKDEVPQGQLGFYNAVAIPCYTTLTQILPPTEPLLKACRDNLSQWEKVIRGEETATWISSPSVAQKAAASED

`Cc1ncc(-c2ccncc2)c(OC[C@H]2C[C@@H]2c2ccc3ccccc3n2)n1` (single isomer, unassigned) [Example 27] was tested, and the Ki was 0.93 nM.

For `COc1ccc([C@H]2C[C@@H]2COc2nc(C)ncc2-c2ccc(-c3noc(C)n3)cc2)nc1` [Example 251, 3-(4-(4-(((1S,2S)-2-(5-methoxypyridin-2-yl)cyclopropyl)methoxy)-2-methylpyrimidin-5-yl)phenyl)-5-methyl-1,2,4-oxadiazole], the Ki was 1.97 nM.

`COc1cccc([C@H]2C[C@@H]2COc2nc(C)ncc2C2CCC3(CC2)OCCO3)n1` [Example 200, 4-(((1S,2S)-2-(6-methoxypyridin-2-yl)cyclopropyl)methoxy)-2-methyl-5-(1,4-dioxaspiro[4.5]decan-8-yl)pyrimidine] gave a Ki of 1.61 nM.

In the case of `Cc1ccc([C@H]2C[C@@H]2COc2nc(C)ncc2-c2cccc(OC(C)C)c2)nc1` [Example 3, 5-(3-isopropoxyphenyl)-2-methyl-4-(((1S,2S)-2-(5-methylpyridin-2-yl)cyclopropyl)methoxy)pyrimidine], the Ki is reported as 0.3 nM.

For `Cc1ccc([C@H]2C[C@@H]2COc2nc(C)ncc2-c2ccc(=O)oc2)nc1` [Example 50, 5-(2-methyl-4-(((1S,2S)-2-(5-methylpyridin-2-yl)cyclopropyl)methoxy)pyrimidin-5-yl)-2H-pyran-2-one], the Ki was 4.28 nM.

In the case of `Cc1ncc(-c2ccc(C(C)(C)O)nc2)c(OC[C@H]2C[C@@H]2c2ncccc2C)n1` (single isomer, unassigned) [Example 174], the Ki is reported as 8.42 nM.

Compound `COc1ccc([C@H]2C[C@@H]2COc2nc(C)ncc2-c2ncno2)nc1` [Example 254, 5-(4-(((1S,2S)-2-(5-methoxypyridin-2-yl)cyclopropyl)methoxy)-2-methylpyrimidin-5-yl)-1,2,4-oxadiazole] has a Ki of 22.9 nM.

Work on `COc1nncc(-c2cnc(C)nc2OC[C@H]2C[C@@H]2c2ccc(C)cn2)c1Cl` [Example 52, 4-chloro-3-methoxy-5-(2-methyl-4-(((1S,2S)-2-(5-methylpyridin-2-yl)cyclopropyl)methoxy)pyrimidin-5-yl)pyridazine] yielded a Ki of 2.36 nM.

`COc1ccc([C@H]2C[C@@H]2COc2nc(C)ncc2-c2cn(C)oc2=O)nc1` [Example 243, 4-(4-(((1S,2S)-2-(5-methoxypyridin-2-yl)cyclopropyl)methoxy)-2-methylpyrimidin-5-yl)-2-methylisoxazol-5(2H)-one] showed a Ki of 6.59 nM.

Compound `COc1ccc([C@H]2C[C@@H]2COc2nc(C)ncc2[C@@H]2CC[C@@H](O)C2)nc1` [Example 80, (1R,3R)-3-(4-(((1S,2S)-2-(5-methoxypyridin-2-yl)cyclopropyl)methoxy)-2-methylpyrimidin-5-yl)cyclopentanol] has a Ki of 5.48 nM.

Work on `Cc1ncc(-c2ccc3nccn3c2)c(OC[C@H]2C[C@@H]2c2ccc3ccccc3n2)n1` [Example 136, 2-((1S,2S)-2-((5-(imidazo[1,2-a]pyridin-6-yl)-2-methylpyrimidin-4-yloxy)methyl)cyclopropyl)quinoline] yielded a Ki of 0.04 nM.

`COc1ccc([C@H]2C[C@@H]2COc2nc(C)ncc2-c2cn(C)nc2C(O)C(F)(F)F)nc1` (stereo partly drawn) [Example 114, 2,2,2-trifluoro-1-(4-(4-(((1S,2S)-2-(5-methoxypyridin-2-yl)cyclopropyl)methoxy)-2-methylpyrimidin-5-yl)-1-methyl-1H-pyrazol-3-yl)ethanol] was tested, and the Ki was 0.93 nM.

`Cc1cccc([C@H]2C[C@@H]2COc2nc(C)ncc2C2CCC3(CC2)OCCO3)n1` [Example 186, 2-methyl-4-(((1S,2S)-2-(6-methylpyridin-2-yl)cyclopropyl)methoxy)-5-(1,4-dioxaspiro[4.5]decan-8-yl)pyrimidine] showed a Ki of 6.67 nM.

With `Cc1ccc([C@H]2C[C@@H]2COc2nc(C)ncc2-c2cnnc(C)c2)nc1` [Example 58, 3-methyl-5-(2-methyl-4-(((1S,2S)-2-(5-methylpyridin-2-yl)cyclopropyl)methoxy)pyrimidin-5-yl)pyridazine] the Ki was 3.02 nM.

Work on `Cc1ccc([C@H]2C[C@@H]2COc2nc(C)ncc2-c2ccccc2C(F)(F)F)nc1` [Example 14, 2-methyl-4-(((1S,2S)-2-(5-methylpyridin-2-yl)cyclopropyl)methoxy)-5-(2-(trifluoromethyl)phenyl)pyrimidine] yielded a Ki of 3.1 nM.

`COc1ccc([C@H]2C[C@@H]2COc2nc(C)ncc2-c2cc(C(F)(F)F)cnc2Cl)nc1` [Example 87, 5-(2-chloro-5-(trifluoromethyl)pyridin-3-yl)-4-(((1S,2S)-2-(5-methoxypyridin-2-yl)cyclopropyl)methoxy)-2-methylpyrimidine] showed a Ki of 0.44 nM.

`Cc1ccc([C@H]2C[C@@H]2COc2nc(C)ncc2[C@]2(F)CC[C@@H](O)CC2)nc1` [Example 210, (trans)-4-Fluoro-4-(2-methyl-4-(((1S,2S)-2-(5-methylpyridin-2-yl)cyclopropyl)methoxy)pyrimidin-5-yl)cyclohexanol] was tested, and the Ki was 7.85 nM.

Work on `Cc1ccc([C@H]2C[C@@H]2COc2nc(C)ncc2-c2ccnc(F)c2)nc1` [Example 19, 5-(2-fluoropyridin-4-yl)-2-methyl-4-(((1S,2S)-2-(5-methylpyridin-2-yl)cyclopropyl)methoxy)pyrimidine] yielded a Ki of 0.55 nM.

`COc1ccc([C@H]2C[C@@H]2COc2nc(C)ncc2C2=CC(=O)CC2)nc1` [Example 76, 3-(4-(((1S,2S)-2-(5-methoxypyridin-2-yl)cyclopropyl)methoxy)-2-methylpyrimidin-5-yl)cyclopent-2-enone] was tested, and the Ki was 0.48 nM.

`COc1ccc([C@H]2C[C@@H]2COc2nc(C)ncc2-c2ccc(C(C)(C)O)nn2)nc1` [Example 100, 2-(6-(4-(((1S,2S)-2-(5-methoxypyridin-2-yl)cyclopropyl)methoxy)-2-methylpyrimidin-5-yl)pyridazin-3-yl)propan-2-ol] was tested, and the Ki was 4.01 nM.

`COc1ncccc1-c1cnc(C)nc1OC[C@H]1C[C@@H]1c1ccc(C)cn1` [Example 16, 5-(2-methoxypyridin-3-yl)-2-methyl-4-(((1S,2S)-2-(5-methylpyridin-2-yl)cyclopropyl)methoxy)pyrimidine] gave a Ki of 0.74 nM.

`Cc1ncc(-c2ncccc2F)c(OC[C@H]2C[C@@H]2c2ccc3ccccc3n2)n1` [Example 127, 2-((1S,2S)-2-((5-(3-fluoropyridin-2-yl)-2-methylpyrimidin-4-yloxy)methyl)cyclopropyl)quinoline] was tested, and the Ki was 0.51 nM.

Work on `COc1ccc([C@H]2C[C@@H]2COc2nc(C)ncc2-c2ccc([S+](C)[O-])nc2)nc1` (single isomer, unassigned) [Example 64] yielded a Ki of 1.75 nM.

With `Cc1ncc(-c2ccc(C(C)(C)O)nc2)c(OC[C@H]2C[C@@H]2c2ccc(C(F)(F)F)cn2)n1` [Example 183, 2-(5-(2-methyl-4-(((1S,2S)-2-(5-(trifluoromethyl)pyridin-2-yl)cyclopropyl)methoxy)pyrimidin-5-yl)pyridin-2-yl)propan-2-ol] the Ki was 13.5 nM.

`COc1ccc([C@H]2C[C@@H]2COc2nc(C)ncc2-c2ccc(-c3nc(CO)no3)cc2)nc1` [Example 95, (5-(4-(4-(((1S,2S)-2-(5-methoxypyridin-2-yl)cyclopropyl)methoxy)-2-methylpyrimidin-5-yl)phenyl)-1,2,4-oxadiazol-3-yl)methanol] showed a Ki of 0.93 nM.

Work on `Cc1ccc([C@H]2C[C@@H]2COc2nc(C)ncc2C2CCC(F)(F)CC2)nc1` [Example 209, 5-(4,4-Difluorocyclohexyl)-2-methyl-4-(((1S,2S)-2-(5-methylpyridin-2-yl)cyclopropyl)methoxy)pyrimidine] yielded a Ki of 12.1 nM.
